Data as given in ChEMBL document CHEMBL5678795 (Eur J Pharmacol, 1999).
The source made the active and inactive calls. The calls are words filed in the database; no cut-off is given here.

Tests used:
[1] = molecular target: 5-hydroxytryptamine receptor 1B (Homo sapiens) (UniProt P28222); assay: Displacement of [3H]GR125743 from human recombinant 5-Hydroxytryptamine 1B at 10 uM incubated for 60 mins by radiometric based scintillation counter assay relative to control
[2] = molecular target: Neuropeptide Y receptor type 2 (Homo sapiens) (UniProt P49146); assay: Displacement of [125I]peptide YY from human recombinant Y2 receptor at 10 uM incubated for 60 mins by radiometric based scintillation counter assay relative to control
[3] = molecular target: Interleukin-1 beta (Homo sapiens) (UniProt P01584); assay: Inhibition of Interleukin-1beta (unknown origin) at 10 uM by radioligand binding assay relative to control
[4] = molecular target: 5-hydroxytryptamine receptor 1A (Homo sapiens) (UniProt P08908); assay: Displacement of [3H]8-OH-DPAT from human recombinant 5-Hydroxytryptamine 1A at 10 uM incubated for 60 mins by radiometric based scintillation counter assay relative to control
Homo sapiens [5] = species on record: Homo sapiens; assay: Inhibition of Voltage-gated Na+ channel (site 1) (unknown origin) at 10 uM by radioligand binding assay relative to control
[6] = Cmax in Sprague-Dawley rat at 10 mg/kg, po administered for 12 hrs by HPLC analysis; type: ADME, organism-based; settings: in vivo
Homo sapiens [7] = species on record: Homo sapiens; assay: Inhibition of Thromboxane A2 receptor/prostaglandin H2 receptor (unknown origin) at 10 uM by radioligand binding assay relative to control
[8] = molecular target: Muscarinic acetylcholine receptor M2 (Homo sapiens) (UniProt P08172); assay: Displacement of [3H]AF-DX 384 from human recombinant muscarinic M2 receptor at 10 uM incubated for 60 mins by radiometric based scintillation counter assay relative to control
[9] = molecular target: Kappa-type opioid receptor (Homo sapiens) (UniProt P41145); assay: Displacement of [3H]U-69593 from human kappa-Opioid receptor at 10 uM incubated for 60 mins by radiometric based scintillation counter assay relative to control
[10] = molecular target: Endothelin receptor type B (Oryctolagus cuniculus, UniProt Q9N0W7); assay: Antagonist activity to ETB receptor in sarafotoxin-6c stimulated rabbit pulmonary artery assessed as induction of vessel ring contraction preincubated for 15 mins; type: functional, tissue-based; settings: read-out: pA2 (converted)
[11] = molecular target: T1, Endothelin-1 receptor (Homo sapiens) (UniProt P25101); assay: Displacement of [125I]endothelin-1 from human recombinant endothelin ETA receptor at 10 uM incubated for 120 mins by radiometric based scintillation counter assay relative to control; settings: filed as antagonist
T1 sequence (whole entry): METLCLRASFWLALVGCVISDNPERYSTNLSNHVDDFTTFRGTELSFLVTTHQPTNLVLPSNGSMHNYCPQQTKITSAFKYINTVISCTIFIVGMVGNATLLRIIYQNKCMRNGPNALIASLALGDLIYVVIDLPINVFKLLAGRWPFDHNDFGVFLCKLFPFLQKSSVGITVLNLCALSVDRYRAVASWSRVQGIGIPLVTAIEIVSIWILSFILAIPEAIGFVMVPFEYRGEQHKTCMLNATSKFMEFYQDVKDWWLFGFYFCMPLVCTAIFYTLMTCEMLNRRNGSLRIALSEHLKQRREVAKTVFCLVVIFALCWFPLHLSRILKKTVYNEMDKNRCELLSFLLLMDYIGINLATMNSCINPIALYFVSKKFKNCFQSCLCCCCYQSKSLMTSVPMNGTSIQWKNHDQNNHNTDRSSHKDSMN

[12] = molecular target: Cholecystokinin receptor type A (Homo sapiens) (UniProt P32238); assay: Displacement of [125I]CCK-8s from human recombinant cholecystokinin A receptor at 10 uM incubated for 60 mins by radiometric based scintillation counter assay relative to control
[13] = Half life in Sprague-Dawley rat at 5 mg/kg, iv administered for 12 hrs by HPLC analysis; type: ADME, organism-based; settings: in vivo
[14] = molecular target: Melatonin receptor type 1A (Homo sapiens) (UniProt P48039); assay: Displacement of [125I]2-iodomelatonin from human recombinant melatonin ML1 receptor at 10 uM incubated for 240 mins by radiometric based scintillation counter assay relative to control
[15] = molecular target: Delta-type opioid receptor (Homo sapiens) (UniProt P41143); assay: Displacement of [3H]DPDPE from human recombinant delta-Opioid receptor at 10 uM incubated for 60 mins by radiometric based scintillation counter assay relative to control; settings: filed as antagonist
Mus musculus = species on record: Mus musculus; assay: Displacement of [125I]PDGF BB from mouse platlet-derived growth factor receptor at 10 uM incubated for 180 mins by radiometric based scintillation counter assay relative to control
[16] = molecular target: Vasoactive intestinal polypeptide receptor 1 (Homo sapiens) (UniProt P32241); assay: Displacement of [125I]VIP from human recombinant Vasoactive intestinal peptide receptor at 10 uM incubated for 60 mins by radiometric based scintillation counter assay relative to control
[17] = tested on: P2Y purinergic receptor (Rattus norvegicus); assay: Displacement of [35S]dATPalpha S from rat brain P2Y-purinergic receptor at 10 uM incubated for 60 mins by radiometric based scintillation counter assay relative to control
[18] = molecular target: Histamine H2 receptor (Homo sapiens) (UniProt P25021); assay: Displacement of [125I]APT from human recombinant histamine H2 receptor at 10 uM incubated for 120 mins by radiometric based scintillation counter assay relative to control
[19] = molecular target: Sigma non-opioid intracellular receptor 1 (Homo sapiens) (UniProt Q99720); assay: Displacement of [3H]DTG from human sigma-Receptor at 10 uM incubated for 120 mins by radiometric based scintillation counter assay relative to control
[20] = molecular target: T2, Endothelin-1 receptor (Rattus norvegicus) (UniProt P26684); assay: In vivo antagonist activity to ETA receptor in endothelin-1 induced Sprague-Dawley rat assessed as reduction of vasopressor response at 30 mg/kg, po administered for 24 hrs; type: functional, organism-based
T2 sequence (whole entry): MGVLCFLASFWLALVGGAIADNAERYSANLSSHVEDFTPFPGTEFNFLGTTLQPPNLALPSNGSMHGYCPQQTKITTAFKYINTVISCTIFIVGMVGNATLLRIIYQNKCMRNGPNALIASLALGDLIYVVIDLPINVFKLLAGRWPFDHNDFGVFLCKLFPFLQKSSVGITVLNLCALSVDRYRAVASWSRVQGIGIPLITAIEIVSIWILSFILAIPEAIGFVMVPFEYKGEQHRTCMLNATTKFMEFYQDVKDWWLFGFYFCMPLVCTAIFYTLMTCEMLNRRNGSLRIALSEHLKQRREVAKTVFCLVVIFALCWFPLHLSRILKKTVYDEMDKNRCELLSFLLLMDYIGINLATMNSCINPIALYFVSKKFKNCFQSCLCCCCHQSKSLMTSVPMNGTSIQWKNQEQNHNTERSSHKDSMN

[21] = molecular target: Substance-K receptor (Homo sapiens) (UniProt P21452); assay: Displacement of [125I]NKA from human recombinant Neurokinin A receptor at 10 uM incubated for 60 mins by radiometric based scintillation counter assay relative to control
Homo sapiens [22] = species on record: Homo sapiens; assay: Displacement of [3H] PK 11195 from central-type benzodiazepine (unknown origin) at 10 uM incubated for 15 mins by radiometric based scintillation counter assay relative to control

Endothelin receptor type B, sequence (Q9N0W7 whole entry): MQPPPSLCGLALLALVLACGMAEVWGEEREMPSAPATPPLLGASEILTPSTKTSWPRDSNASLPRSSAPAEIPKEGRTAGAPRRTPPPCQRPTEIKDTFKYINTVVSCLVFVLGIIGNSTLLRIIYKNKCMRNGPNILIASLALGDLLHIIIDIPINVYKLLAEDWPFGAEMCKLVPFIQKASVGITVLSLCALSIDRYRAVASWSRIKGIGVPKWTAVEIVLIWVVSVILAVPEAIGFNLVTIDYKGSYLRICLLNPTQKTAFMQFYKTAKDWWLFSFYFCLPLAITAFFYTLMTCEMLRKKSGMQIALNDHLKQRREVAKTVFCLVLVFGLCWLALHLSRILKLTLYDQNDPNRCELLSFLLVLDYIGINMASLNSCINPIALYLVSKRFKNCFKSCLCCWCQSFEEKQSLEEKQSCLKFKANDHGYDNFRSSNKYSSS
Neuropeptide Y receptor type 2 (Homo sapiens), sequence (P49146 whole entry): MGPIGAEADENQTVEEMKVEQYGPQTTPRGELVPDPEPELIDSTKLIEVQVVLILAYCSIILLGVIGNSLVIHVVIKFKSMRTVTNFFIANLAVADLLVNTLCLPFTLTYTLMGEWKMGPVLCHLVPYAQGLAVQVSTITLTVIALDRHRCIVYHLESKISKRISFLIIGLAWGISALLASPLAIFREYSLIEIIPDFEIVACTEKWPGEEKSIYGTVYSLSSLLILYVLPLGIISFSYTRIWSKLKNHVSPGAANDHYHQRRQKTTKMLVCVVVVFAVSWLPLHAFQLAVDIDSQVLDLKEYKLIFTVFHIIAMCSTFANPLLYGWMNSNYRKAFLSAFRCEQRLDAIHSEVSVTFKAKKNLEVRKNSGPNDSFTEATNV
5-hydroxytryptamine receptor 1B (Homo sapiens), sequence (P28222 whole entry): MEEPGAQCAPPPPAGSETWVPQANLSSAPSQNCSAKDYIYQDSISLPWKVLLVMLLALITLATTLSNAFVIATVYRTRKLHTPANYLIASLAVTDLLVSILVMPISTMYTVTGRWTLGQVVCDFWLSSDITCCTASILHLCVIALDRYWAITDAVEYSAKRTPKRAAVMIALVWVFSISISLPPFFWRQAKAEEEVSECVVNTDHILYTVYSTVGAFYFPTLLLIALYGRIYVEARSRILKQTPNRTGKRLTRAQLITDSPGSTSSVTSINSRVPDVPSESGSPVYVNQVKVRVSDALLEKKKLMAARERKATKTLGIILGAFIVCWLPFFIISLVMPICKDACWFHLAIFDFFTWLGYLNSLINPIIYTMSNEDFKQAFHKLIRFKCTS
Muscarinic acetylcholine receptor M2 (Homo sapiens), sequence (P08172 whole entry): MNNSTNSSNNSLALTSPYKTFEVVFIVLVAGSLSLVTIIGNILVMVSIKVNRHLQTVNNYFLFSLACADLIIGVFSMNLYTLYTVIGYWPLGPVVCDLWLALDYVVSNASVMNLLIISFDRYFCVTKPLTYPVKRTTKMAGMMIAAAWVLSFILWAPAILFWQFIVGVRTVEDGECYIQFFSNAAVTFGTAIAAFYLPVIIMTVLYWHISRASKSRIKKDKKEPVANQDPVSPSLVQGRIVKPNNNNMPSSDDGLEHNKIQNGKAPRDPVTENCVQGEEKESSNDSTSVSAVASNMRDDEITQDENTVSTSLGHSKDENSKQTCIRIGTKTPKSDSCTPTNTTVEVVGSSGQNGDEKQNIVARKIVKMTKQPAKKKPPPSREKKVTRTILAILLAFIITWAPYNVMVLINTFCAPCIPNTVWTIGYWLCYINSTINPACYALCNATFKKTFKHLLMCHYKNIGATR
Sigma non-opioid intracellular receptor 1 (Homo sapiens), sequence (Q99720 whole entry): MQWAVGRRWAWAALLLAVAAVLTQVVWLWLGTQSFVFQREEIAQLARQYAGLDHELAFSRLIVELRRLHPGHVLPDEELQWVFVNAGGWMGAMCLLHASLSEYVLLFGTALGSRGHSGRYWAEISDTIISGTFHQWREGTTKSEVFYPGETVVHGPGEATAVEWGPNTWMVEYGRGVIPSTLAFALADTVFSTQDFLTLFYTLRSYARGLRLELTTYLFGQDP
5-hydroxytryptamine receptor 1A (Homo sapiens), sequence (P08908 whole entry): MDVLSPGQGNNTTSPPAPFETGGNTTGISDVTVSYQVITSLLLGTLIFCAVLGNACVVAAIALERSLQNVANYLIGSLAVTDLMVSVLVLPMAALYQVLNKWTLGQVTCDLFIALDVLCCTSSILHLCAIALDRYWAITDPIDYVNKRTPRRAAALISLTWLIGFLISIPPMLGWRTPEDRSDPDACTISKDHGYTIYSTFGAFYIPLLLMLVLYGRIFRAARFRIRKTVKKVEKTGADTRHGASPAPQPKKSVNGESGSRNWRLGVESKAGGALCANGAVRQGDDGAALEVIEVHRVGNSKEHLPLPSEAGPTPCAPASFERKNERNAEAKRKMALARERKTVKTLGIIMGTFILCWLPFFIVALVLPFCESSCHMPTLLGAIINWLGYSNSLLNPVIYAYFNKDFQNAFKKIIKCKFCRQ
Substance-K receptor (Homo sapiens), sequence (P21452 whole entry): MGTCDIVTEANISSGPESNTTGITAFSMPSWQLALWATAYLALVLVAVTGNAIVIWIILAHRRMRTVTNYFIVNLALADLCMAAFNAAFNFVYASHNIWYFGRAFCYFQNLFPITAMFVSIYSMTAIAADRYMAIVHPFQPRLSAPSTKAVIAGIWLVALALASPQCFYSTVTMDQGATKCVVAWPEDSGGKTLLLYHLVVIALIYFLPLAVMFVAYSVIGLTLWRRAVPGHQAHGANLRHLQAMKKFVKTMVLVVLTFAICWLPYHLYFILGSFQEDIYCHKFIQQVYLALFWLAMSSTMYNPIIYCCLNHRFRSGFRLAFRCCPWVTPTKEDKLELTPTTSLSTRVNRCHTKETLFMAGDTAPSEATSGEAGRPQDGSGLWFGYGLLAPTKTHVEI
Interleukin-1 beta (Homo sapiens), sequence (P01584 117-269 limits assumed): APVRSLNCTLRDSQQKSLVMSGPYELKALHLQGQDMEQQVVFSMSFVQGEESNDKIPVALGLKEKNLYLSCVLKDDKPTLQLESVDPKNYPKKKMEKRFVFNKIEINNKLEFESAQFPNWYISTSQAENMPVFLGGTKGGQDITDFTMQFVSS
Cholecystokinin receptor type A (Homo sapiens), sequence (P32238 whole entry): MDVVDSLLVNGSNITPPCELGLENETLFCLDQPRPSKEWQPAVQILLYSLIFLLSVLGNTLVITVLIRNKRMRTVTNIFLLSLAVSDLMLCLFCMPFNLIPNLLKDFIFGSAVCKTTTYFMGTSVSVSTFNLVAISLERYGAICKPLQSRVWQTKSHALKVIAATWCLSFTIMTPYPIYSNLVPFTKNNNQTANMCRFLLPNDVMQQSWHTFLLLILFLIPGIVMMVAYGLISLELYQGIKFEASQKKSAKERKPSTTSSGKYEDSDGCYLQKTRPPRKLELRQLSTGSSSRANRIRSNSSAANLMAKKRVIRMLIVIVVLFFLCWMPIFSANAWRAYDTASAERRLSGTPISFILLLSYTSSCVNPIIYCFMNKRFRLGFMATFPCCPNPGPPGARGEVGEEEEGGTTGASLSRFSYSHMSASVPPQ
Melatonin receptor type 1A (Homo sapiens), sequence (P48039 whole entry): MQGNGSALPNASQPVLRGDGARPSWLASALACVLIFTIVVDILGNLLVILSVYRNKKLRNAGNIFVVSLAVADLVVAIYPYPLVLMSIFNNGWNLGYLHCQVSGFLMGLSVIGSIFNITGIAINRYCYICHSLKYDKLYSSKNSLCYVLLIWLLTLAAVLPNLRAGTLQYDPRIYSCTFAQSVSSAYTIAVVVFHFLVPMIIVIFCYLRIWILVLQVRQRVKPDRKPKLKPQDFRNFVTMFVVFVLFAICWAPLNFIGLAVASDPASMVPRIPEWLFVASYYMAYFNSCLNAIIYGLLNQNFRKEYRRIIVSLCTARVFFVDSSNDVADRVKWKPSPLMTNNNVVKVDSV
Vasoactive intestinal polypeptide receptor 1 (Homo sapiens), sequence (P32241 whole entry): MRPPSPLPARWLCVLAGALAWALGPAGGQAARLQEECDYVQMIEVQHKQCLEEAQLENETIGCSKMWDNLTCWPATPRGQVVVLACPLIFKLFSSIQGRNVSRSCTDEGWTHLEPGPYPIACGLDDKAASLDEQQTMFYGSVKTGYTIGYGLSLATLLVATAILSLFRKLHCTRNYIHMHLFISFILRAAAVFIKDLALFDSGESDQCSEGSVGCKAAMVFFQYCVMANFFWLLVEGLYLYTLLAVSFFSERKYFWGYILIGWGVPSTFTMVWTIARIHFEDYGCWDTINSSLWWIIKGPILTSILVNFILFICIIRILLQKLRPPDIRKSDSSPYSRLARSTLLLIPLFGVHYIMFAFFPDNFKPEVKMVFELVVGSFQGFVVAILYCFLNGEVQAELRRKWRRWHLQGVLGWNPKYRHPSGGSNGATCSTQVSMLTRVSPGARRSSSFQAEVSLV
Kappa-type opioid receptor (Homo sapiens), sequence (P41145 whole entry): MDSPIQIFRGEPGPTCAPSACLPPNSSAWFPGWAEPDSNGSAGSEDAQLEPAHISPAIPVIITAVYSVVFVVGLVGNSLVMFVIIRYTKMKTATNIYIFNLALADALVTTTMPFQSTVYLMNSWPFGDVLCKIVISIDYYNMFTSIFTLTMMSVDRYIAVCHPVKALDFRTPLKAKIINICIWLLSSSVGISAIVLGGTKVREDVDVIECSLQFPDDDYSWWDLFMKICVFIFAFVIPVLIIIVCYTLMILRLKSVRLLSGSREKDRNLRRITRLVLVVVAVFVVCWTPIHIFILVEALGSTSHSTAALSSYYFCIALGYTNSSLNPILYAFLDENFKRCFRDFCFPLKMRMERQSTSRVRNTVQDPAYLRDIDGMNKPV
Delta-type opioid receptor (Homo sapiens), sequence (P41143 whole entry): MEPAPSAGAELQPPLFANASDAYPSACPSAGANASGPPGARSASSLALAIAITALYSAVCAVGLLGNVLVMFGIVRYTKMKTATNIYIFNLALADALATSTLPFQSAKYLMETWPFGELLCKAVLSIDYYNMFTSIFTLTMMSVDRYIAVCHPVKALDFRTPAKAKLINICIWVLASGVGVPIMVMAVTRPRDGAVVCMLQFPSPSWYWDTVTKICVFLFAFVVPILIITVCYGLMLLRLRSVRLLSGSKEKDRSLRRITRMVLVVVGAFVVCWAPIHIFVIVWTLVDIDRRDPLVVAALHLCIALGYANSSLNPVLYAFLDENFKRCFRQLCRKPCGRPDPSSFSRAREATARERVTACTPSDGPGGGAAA

For `CCCCN(CCCC)C(=O)CN1[C@H](c2cc(OC)c3c(c2)OCO3)C[C@@H](C(=O)O)[C@@H]1CC(C)(C)CCC`, the inhibition [1] was < 10%, the inhibition [2] was < 10% and the inhibition [3] was < 10%. For the same compound, the inhibition [4] was < 10%, the inhibition (Homo sapiens [5]) was 22% and the Cmax [6] was 1690 ng/mL. The inhibition (Homo sapiens [7]) was 16%, the inhibition [8] was < 10% and the inhibition [9] was 28%. For the same compound, the Kb [10] was 26.9 µM, the inhibition [11] was 98% and the inhibition [12] was < 10%. For the same compound, the half-life [13] was 1.6 h, the inhibition [14] was 12% and the inhibition [15] was 62%. For the same compound, the inhibition (Mus musculus) was < 10%, the inhibition [16] was < 10% and the inhibition [17] was < 10%. The inhibition [18] was < 10%, the inhibition [19] was < 10% and the Activity [20] was “inactive”. For the same compound, the inhibition [21] was < 10% and the inhibition (Homo sapiens [22]) was < 10%.
